pIC50: −log10 of the molar value.

A word on the pIC50: it is −log10 of the IC50, conventionally taken in molar units. As a reminder, the inhibition is the share of the control response that was lost under treatment. A low value points to little suppression.

The target in one assay is PI3K-δ (Homo sapiens, UniProt O00329). Nature of the assay: PI3K-δ assay (ADP-Glo). Particulars: for pIC50: read-out: PI3K inhibition IC50 -δ; for Fold-selectivity for PI3K-α with respect to -δ: α versus δ isoform. Format: biochemical.
PI3K-δ, sequence (O00329 whole entry, species assumed, canonical isoform): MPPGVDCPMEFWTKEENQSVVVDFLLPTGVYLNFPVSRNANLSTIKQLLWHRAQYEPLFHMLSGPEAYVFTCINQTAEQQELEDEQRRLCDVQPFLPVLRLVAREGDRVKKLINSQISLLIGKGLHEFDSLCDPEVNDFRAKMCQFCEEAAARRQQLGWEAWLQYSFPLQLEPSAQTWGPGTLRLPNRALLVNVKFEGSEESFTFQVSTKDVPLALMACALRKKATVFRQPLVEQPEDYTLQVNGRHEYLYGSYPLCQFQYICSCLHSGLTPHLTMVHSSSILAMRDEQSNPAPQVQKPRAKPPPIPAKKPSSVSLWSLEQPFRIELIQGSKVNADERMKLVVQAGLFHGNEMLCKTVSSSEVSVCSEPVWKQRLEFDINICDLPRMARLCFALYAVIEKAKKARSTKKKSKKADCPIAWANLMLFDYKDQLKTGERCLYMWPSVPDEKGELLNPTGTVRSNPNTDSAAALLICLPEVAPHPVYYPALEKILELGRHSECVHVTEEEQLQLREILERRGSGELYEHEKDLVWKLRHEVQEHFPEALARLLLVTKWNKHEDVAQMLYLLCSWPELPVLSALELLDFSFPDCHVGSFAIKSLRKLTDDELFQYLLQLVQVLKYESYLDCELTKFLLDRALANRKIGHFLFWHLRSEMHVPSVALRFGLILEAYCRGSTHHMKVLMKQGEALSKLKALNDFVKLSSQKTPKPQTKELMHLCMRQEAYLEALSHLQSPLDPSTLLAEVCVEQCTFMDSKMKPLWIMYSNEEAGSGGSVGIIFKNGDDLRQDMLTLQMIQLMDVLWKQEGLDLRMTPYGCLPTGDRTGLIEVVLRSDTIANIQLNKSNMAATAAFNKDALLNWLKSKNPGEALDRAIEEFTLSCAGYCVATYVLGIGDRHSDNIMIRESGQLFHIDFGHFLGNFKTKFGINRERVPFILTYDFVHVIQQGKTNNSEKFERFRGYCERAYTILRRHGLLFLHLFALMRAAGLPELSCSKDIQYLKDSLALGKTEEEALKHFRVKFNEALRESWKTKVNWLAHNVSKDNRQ
PI3K-δ, sequence (P27986 whole entry partner, species assumed, canonical isoform): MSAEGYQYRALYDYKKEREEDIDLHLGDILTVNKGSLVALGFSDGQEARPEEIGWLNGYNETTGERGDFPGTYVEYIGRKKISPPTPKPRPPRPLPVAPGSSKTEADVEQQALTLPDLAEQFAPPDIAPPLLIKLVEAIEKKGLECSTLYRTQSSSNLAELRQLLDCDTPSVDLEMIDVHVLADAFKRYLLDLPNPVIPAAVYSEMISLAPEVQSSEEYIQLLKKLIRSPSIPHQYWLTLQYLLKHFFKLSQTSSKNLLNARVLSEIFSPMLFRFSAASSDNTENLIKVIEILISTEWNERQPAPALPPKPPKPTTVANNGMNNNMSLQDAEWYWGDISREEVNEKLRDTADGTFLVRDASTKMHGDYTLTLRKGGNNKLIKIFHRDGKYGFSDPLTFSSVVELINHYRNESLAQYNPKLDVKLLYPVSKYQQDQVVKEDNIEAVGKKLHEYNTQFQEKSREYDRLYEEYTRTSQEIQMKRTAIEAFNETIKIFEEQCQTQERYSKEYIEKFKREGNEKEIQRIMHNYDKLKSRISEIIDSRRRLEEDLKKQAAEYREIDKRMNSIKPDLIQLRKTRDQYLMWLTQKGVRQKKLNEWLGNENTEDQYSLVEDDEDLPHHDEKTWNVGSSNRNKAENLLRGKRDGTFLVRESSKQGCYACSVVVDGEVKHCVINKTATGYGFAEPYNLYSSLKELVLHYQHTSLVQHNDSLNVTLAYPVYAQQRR
Another assay addresses PI3K-γ (Homo sapiens, UniProt P48736). Description: PI3K-γ assay (ADP-Glo). Format: biochemical. The note with it: for pIC50: read-out: PI3K inhibition IC50 -γ; for Fold-selectivity for PI3K-α with respect to -γ: α versus γ isoform. A general note: In ADP-Glo the light output rises with the ADP produced.
In another assay the target is PI3K-β (Homo sapiens, UniProt P42338). Nature of the assay: PI3K-β assay (ADP-Glo). Format: biochemical. Particulars: for pIC50: read-out: PI3K inhibition IC50 -β; for Fold-selectivity for PI3K-α with respect to -β: α versus β isoform.
PI3K-β, sequence (P42338 whole entry, species assumed, canonical isoform): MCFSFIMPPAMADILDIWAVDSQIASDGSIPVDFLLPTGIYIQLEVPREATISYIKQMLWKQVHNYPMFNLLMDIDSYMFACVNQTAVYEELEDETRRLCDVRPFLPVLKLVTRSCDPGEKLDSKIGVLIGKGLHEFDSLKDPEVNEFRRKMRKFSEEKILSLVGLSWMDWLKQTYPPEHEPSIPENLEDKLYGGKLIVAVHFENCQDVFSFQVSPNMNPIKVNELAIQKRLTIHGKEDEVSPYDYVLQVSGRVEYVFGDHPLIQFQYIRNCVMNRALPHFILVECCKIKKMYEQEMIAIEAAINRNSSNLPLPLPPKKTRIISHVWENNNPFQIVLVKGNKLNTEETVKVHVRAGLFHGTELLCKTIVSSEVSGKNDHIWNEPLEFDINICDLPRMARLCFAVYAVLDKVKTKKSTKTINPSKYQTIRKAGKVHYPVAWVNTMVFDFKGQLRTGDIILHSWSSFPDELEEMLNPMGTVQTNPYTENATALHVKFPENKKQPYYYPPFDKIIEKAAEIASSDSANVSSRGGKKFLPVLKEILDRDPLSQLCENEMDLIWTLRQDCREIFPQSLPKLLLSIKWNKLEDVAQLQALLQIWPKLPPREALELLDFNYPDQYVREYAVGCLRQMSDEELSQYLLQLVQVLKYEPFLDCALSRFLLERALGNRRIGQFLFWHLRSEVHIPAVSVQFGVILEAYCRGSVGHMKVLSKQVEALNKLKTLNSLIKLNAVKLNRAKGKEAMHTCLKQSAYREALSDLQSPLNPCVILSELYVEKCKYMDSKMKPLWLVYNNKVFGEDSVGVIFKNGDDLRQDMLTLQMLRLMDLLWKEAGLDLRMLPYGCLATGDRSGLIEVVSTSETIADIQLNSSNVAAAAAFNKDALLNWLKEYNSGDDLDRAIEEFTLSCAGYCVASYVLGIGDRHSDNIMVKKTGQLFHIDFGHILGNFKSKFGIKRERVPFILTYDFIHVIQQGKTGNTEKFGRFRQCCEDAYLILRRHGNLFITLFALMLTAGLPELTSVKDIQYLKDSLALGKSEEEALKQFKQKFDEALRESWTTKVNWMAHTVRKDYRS
PI3K-β, sequence (P27986 whole entry partner, species assumed, canonical isoform): as the sequence (P27986 whole entry partner, species assumed, canonical isoform) above
Assay [1] deals with MCF-7 (breast cancer) cells. Description: MTT cytotoxicity assay, MCF-7. The format is cell-based. The note with it: Homo sapiens, MCF7, 48 h treatment, read-out: Anticancer activity IC50 MCF-7. The protocol:
(§1) Compounds proposed in present invention were evaluated for their cytotoxic effect against panel of 5 cancer cell line viz. Panc-1 (pancreatic cancer), MCF-7 (breast cancer), PC-3 (prostate), HL-60 (leukemia) and A-375 (melanoma) using MTT assay. In each well of a 96-well plate, 3×10^3 cells were grown in 100 μL of medium. After 24 h, each test molecules were added to achieve a final concentration of 10 to 0.01 μmol/L, respectively. After 48 h of treatment, 20 μL of 2.5 mg/mL MTT (Organics Research, Inc.) solution in phosphate buffer saline was added to each well. […], supernatant was removed and formazan crystals were dissolved in 200 μL of DMSO. Absorbance was then measured at 570 nm using an absorbance plate reader (Bio-Rad Microplate Reader). Data are expressed as the percentage of viable cells in treated relative to non-treated conditions. Each experiment was repeated thrice and data was expressed as mean±SD of three independent experiments (Mordant, P. et al., Mol. Cancer Ther. 2010, 9, 358).
In general terms: Formazan colour is commonly taken as a measure of viable cells.

The test system of assay [2] is PC-3 (prostate cancer) cells. Description: MTT cytotoxicity assay, PC-3. The format is cell-based. The note with it: Homo sapiens, 48 h treatment, read-out: Anticancer activity IC50 PC-3. On the procedure: as §1
Assay [3] has as its system Panc-1 (pancreatic cancer) cells. Description: MTT cytotoxicity assay, Panc-1. Format: cell-based. Particulars: Homo sapiens, 48 h treatment, read-out: Anticancer activity IC50 Panc-1. The protocol: as §1
Another assay relates to A-375 (melanoma) cells. Nature of the assay: MTT cytotoxicity assay, A375. Format: cell-based. Particulars: Homo sapiens, 48 h treatment, read-out: Anticancer activity IC50 A375. The protocol: as §1
The target in the next assay is PI3K-α (Homo sapiens, UniProt P42336). Description: PI3K-α assay (ADP-Glo). The format is biochemical. The note with it: for pIC50: read-out: PI3K inhibition IC50 -α.
PI3K-α, sequence (P42336 whole entry): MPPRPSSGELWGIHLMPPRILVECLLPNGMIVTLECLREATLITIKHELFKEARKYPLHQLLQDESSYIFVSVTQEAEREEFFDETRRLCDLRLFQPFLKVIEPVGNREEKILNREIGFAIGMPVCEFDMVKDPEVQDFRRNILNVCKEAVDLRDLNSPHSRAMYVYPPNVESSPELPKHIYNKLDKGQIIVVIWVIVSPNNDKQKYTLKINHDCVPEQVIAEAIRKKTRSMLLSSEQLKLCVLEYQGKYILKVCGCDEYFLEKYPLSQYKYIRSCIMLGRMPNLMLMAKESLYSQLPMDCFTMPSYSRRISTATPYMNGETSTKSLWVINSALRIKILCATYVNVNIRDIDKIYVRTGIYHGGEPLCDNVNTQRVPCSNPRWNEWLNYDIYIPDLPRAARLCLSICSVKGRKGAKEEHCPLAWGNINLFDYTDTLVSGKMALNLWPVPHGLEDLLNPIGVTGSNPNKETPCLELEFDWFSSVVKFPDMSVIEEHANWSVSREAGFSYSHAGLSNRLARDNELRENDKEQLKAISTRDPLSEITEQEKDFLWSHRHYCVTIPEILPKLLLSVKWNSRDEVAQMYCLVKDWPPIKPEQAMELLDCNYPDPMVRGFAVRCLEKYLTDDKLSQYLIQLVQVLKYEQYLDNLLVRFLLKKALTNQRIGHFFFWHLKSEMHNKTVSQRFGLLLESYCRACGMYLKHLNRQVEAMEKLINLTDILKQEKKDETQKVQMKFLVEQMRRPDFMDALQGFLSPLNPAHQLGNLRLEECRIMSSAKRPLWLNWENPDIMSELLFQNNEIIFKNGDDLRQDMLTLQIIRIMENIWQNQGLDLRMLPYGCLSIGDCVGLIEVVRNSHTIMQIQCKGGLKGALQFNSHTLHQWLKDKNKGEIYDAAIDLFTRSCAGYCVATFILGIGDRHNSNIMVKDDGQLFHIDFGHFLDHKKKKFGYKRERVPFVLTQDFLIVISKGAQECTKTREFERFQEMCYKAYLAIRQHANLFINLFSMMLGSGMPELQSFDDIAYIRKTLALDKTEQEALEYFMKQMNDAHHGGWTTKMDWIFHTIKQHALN
PI3K-α, sequence (P27986 whole entry partner): as the sequence (P27986 whole entry partner, species assumed, canonical isoform) above
The subject of the next assay is HL-60 (leukemia) cells. Description: MTT cytotoxicity assay, HL-60. The format is cell-based. Particulars: Homo sapiens, 48 h treatment, read-out: Anticancer activity IC50 HL-60. The protocol:
as §1

PI3K-γ, sequence (P48736 whole entry, species assumed, canonical isoform): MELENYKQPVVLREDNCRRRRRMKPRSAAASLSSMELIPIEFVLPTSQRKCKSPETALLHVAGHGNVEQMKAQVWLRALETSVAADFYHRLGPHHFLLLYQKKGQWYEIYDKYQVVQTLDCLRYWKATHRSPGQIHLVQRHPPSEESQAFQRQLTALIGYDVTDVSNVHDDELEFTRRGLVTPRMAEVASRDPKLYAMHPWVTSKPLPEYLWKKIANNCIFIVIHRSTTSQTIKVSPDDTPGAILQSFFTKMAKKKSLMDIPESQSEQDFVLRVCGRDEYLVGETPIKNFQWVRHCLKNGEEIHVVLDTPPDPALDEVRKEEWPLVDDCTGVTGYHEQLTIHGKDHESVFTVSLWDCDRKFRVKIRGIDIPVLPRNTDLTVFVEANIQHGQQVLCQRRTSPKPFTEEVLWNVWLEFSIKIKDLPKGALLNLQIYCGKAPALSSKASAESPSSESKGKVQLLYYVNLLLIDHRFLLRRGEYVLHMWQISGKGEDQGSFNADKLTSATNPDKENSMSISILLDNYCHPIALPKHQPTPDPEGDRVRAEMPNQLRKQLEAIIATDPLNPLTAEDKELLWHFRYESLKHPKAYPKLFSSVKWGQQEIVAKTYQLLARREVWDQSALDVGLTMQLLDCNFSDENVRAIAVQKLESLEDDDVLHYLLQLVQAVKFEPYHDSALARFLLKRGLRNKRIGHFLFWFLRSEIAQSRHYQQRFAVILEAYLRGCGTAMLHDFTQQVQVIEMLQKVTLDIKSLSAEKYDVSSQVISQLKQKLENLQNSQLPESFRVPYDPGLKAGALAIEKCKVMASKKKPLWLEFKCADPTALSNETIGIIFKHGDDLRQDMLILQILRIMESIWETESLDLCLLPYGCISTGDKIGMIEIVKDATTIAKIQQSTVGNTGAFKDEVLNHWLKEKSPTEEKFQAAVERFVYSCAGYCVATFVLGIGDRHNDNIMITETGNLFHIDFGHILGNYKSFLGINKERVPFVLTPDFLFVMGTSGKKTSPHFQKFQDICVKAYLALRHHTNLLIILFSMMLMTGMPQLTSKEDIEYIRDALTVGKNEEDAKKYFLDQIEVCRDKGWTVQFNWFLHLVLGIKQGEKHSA
Experimental for PI3K-α: The enzyme is assayed for 80 min after which 20 ul of ADP-Glo reagent is added. After a further incubation of 40 min, 40 ul of Kinase Detection Buffer is added. The assays are incubated for 40 min and then read on PerkinElmer Envision for 1 sec/well.
Experimental for PI3K-β: The enzyme is assayed for 60 min after which 20 ul of ADP-Glo reagent is added. After a further incubation of 40 min, 40 ul of kinase detection Buffer is added. The assays are incubated for 40 min and then read on PerkinElmer Envision for 1 sec/well.
Experimental for PI3K-γ: The enzyme is assayed for 75 min after which 20 ul of ADP-Glo reagent is added. After a further incubation of 40 min, 40 ul of Kinase Detection Buffer is added. The assays are incubated for 40 min and then read on PerkinElmer Envision for 1 sec/well.
Experimental for PI3K-δ: Compounds proposed in present invention were evaluated for their inhibitory activity on phosphoinositide-3-kinase-alpha and other isoforms (beta, gamma and delta). […] The protocols used for these bioassays are as follows:
The enzyme is assayed for 120 min after which 20 ul of ADP-Glo reagent is added. After a further incubation of 40 min, 40 ul of Kinase Detection Buffer is added. The assays are incubated for 40 min and then read on PerkinElmer Envision for 1 sec/well.

Consider `N#CCc1ccc(Nc2ncnc3ccc(-c4ccc5[nH]ccc5c4)cc23)cc1` [Compound 26, 6-(1H-indol-5-yl)-4-(4-cyanomethyl)phenylamino-quinazoline], for which the pIC50 was below 5.00 on PI3K-δ; 6.12 at PI3K-γ; below 5.00 at PI3K-β; 5.15 in [1]; 4.62 in assay [2]; 4.80 in assay [3]. In addition, the pIC50 in the assay with A-375 (melanoma) cells is 4.51; at PI3K-α, 6.70; in the assay on HL-60 (leukemia) cells, 4.74. For the same compound, the “Fold-selectivity for PI3K-α with respect to -δ” value (from here on “Fold-selectivity for PI3K-α … -δ”) at PI3K-δ is listed as above 49.7 fold. The “Fold-selectivity for PI3K-α with respect to -γ” value (“Fold-selectivity for PI3K-α … -γ” for short) on PI3K-γ is recorded as 3.7 fold. The “Fold-selectivity for PI3K-α with respect to -β” value (“Fold-selectivity for PI3K-α … -β” for short) on PI3K-β is on record as above 49.7 fold. On PI3K-α (0.5 μM, preliminary screening), the “% Inhibition of PI3K-α at 0.5 μM” value turned out to be 47.5%. Also, the inhibition at 0.5 µM at PI3K-α (0.5 μM, preliminary screening) was above 40%.

For the compound `N#CCc1ccc(Nc2ncnc3ccc(-c4ccc(-c5ccccc5)cc4F)cc23)cc1` [Compound 18, 6-(4-phenyl-2-fluorophenyl)-4-(4-cyanomethyl)phenylamino-quinazoline], the pIC50 in [1] is 4.89; in assay [2], 4.85; in [3], 4.48; in the assay with A-375 (melanoma) cells, 4.49; with HL-60 (leukemia) cells, 4.80. At PI3K-α (0.5 μM, preliminary screening), this compound gave an inhibition at 0.5 µM of 20.3%.

As to `CC(=O)c1ccc(-c2ccc3ncnc(Nc4ccc(CC#N)cc4)c3c2)cc1` [Compound 9, 6-(4-acetylphenyl)-4-(4-cyanomethyl)phenylamino quinazoline], the pIC50 on PI3K-δ was below 5.00; on PI3K-γ it was 6.82; at PI3K-β, below 5.00; in [1] it was 4.35; in assay [2], 4.62; in [3], 4.89. In addition, the pIC50 was 4.49 in the assay with A-375 (melanoma) cells, 6.57 on PI3K-α and 4.55 in the assay on HL-60 (leukemia) cells. Besides, the “Fold-selectivity for PI3K-α … -δ” value on PI3K-δ is on record as above 37 fold. Besides, the “Fold-selectivity for PI3K-α … -γ” value on PI3K-γ came out at 0.5 fold. Further, the “Fold-selectivity for PI3K-α … -β” value on PI3K-β is listed as above 37 fold. For the same compound, testing at 0.5 µM on PI3K-α (0.5 μM, preliminary screening) gave an inhibition of 44%.

Consider `N#CCc1ccc(Nc2ncnc3ccc(-c4ccc5ccccc5c4)cc23)cc1` [Compound 19, 6-(naphthalen-2-yl)-4-(4-cyanomethyl)phenylamino-quinazoline], for which the pIC50 in [1] was 4.80; in [2] it was 4.66; in [3], 4.32; with A-375 (melanoma) cells it was 4.51; in the assay with HL-60 (leukemia) cells, 4.60. This compound also gave an inhibition at 0.5 µM at PI3K-α (0.5 μM, preliminary screening) of 8.2%.

As to `N#CCc1ccc(Nc2ncnc3ccc(-c4ccc(F)cc4F)cc23)cc1` [Compound 7, 6-(2,4-difluorophenyl)-4-(4-cyanomethyl)phenylamino quinazoline], the negative-log IC50 (pIC50) in assay [1] was 5.00; in assay [2], 4.55; in assay [3], 4.68; in the assay on A-375 (melanoma) cells it was 5.05; in the assay with HL-60 (leukemia) cells it was 5.15. Besides, the inhibition at 0.5 µM against PI3K-α (0.5 μM, preliminary screening) came out at 17%.

Consider `N#CCc1ccc(Nc2ncnc3ccc(-c4ccc5c(c4)OCCO5)cc23)cc1` [Compound 20, 6-(2,3-dihydrobenzo[b][1,4]dioxin-6-yl)-4-(4-cyanomethyl)phenylamino-quinazoline], for which the pIC50 was below 5.00 on PI3K-δ; 5.86 on PI3K-γ; below 5.00 at PI3K-β; 4.47 in assay [1]; 4.47 in assay [2]; 4.49 in [3]. For the same compound, the results for the negative-log IC50 (pIC50) with A-375 (melanoma) cells, on PI3K-α and in the assay with HL-60 (leukemia) cells were 4.57, 6.47 and 4.68, respectively. For the same compound, the “Fold-selectivity for PI3K-α … -δ” value at PI3K-δ is above 29.2 fold. On PI3K-γ, the “Fold-selectivity for PI3K-α … -γ” value is on record as 4 fold. For the same compound, on PI3K-β, the “Fold-selectivity for PI3K-α … -β” value was above 29.2 fold. On PI3K-α (0.5 μM, preliminary screening), this compound displayed an inhibition at 0.5 µM of 33%.

For the compound `N#CCc1ccc(Nc2ncnc3ccc(-c4cc5ccccc5o4)cc23)cc1` [Compound 22, 6-(benzofuran-2-yl)-4-(4-cyanomethyl)phenylamino-quinazoline], the pIC50 in assay [1] was 5.05; in assay [2], 5.10; in assay [3], 4.55; with A-375 (melanoma) cells it was 5.00; in the assay on HL-60 (leukemia) cells, 4.77. The compound also yielded an inhibition at 0.5 µM against PI3K-α (0.5 μM, preliminary screening) of 29.8%.

As to `N#CCc1ccc(Nc2ncnc3ccc(-c4cc5ccccc5s4)cc23)cc1` [Compound 23, 6-(benzo[b]thiophen-2-yl)-4-(4-cyanomethyl)phenylamino-quinazoline], the pIC50 in assay [1] was 5.10; in assay [2], 4.89; in assay [3] it was 4.62; in the assay on A-375 (melanoma) cells it was 4.85; in the assay with HL-60 (leukemia) cells, 4.85. The inhibition at 0.5 µM against PI3K-α (0.5 μM, preliminary screening) was found to be 2.7%.

On to `N#CCc1ccc(Nc2ncnc3ccc(-c4cnc5ccccc5c4)cc23)cc1` [Compound 27, 6-(quinolin-3-yl)-4-(4-cyanomethyl)phenylamino-quinazoline], for which the pIC50 was 4.49 in assay [1]; 4.64 in assay [2]; 4.05 in [3]; 4.05 with A-375 (melanoma) cells; 4.36 in the assay on HL-60 (leukemia) cells. The same compound showed an inhibition at 0.5 µM on PI3K-α (0.5 μM, preliminary screening) below 0%.

On to `N#CCc1ccc(Nc2ncnc3ccc(-c4ccccc4C=O)cc23)cc1` [Compound 8, 6-(2-formylphenyl)-4-(4-cyanomethyl)phenylamino quinazoline], for which the pIC50 is 4.04 in assay [1]; 4.68 in [2]; 4.05 in [3]; 4.41 with A-375 (melanoma) cells; 4.38 with HL-60 (leukemia) cells. The inhibition at 0.5 µM on PI3K-α (0.5 μM, preliminary screening) was found to be 1.3%.

In the case of `N#CCc1ccc(Nc2ncnc3ccc(-c4ccc(-c5ccccc5)cc4)cc23)cc1` [Compound 16, 6-(4-phenylphenyl)-4-(4-cyanomethyl)phenylamino-quinazoline], the pIC50 in assay [1] was 4.54; in [2], 5.00; in assay [3], 4.52; with A-375 (melanoma) cells, 4.89; in the assay with HL-60 (leukemia) cells, 4.80. The compound also yielded an inhibition at 0.5 µM against PI3K-α (0.5 μM, preliminary screening) below 0%.

In the case of `N#CCc1ccc(Nc2ncnc3ccc(-c4ccc(OCc5ccc(F)cc5)cc4)cc23)cc1` [Compound 14, 6-(4-fluorobenzyloxyphen-4-yl)-4-(4-cyanomethyl)phenylamino quinazoline], the pIC50 in assay [1] was 4.92; in assay [2], 4.89; in [3], 4.89; in the assay on A-375 (melanoma) cells it was 4.80; in the assay with HL-60 (leukemia) cells it was 4.85. This compound also showed an inhibition at 0.5 µM on PI3K-α (0.5 μM, preliminary screening) of 11%.

Consider `N#CCc1ccc(Nc2ncnc3ccc(-c4cccc5c4oc4ccccc45)cc23)cc1` [Compound 24, 6-(dibenzo(b,d)furan-4-yl)-4-(4-cyanomethyl)phenylamino-quinazoline], for which the pIC50 in assay [1] is 4.57; in assay [2], 4.80; in assay [3], 4.51; in the assay with A-375 (melanoma) cells it was 4.44; in the assay on HL-60 (leukemia) cells, 4.92. Moreover, the inhibition at 0.5 µM against PI3K-α (0.5 μM, preliminary screening) came to 1.5%.

As to `Cc1ccccc1-c1ccc2ncnc(Nc3ccc(CC#N)cc3)c2c1` [Compound 12, 6-(2-methylphenyl)-4-(4-cyanomethyl)phenylamino quinazoline], the pIC50 is below 4.00 in assay [1]; 4.42 in assay [2]; 4.17 in assay [3]; 4.49 with A-375 (melanoma) cells; 4.44 in the assay on HL-60 (leukemia) cells. Moreover, on PI3K-α (0.5 μM, preliminary screening), the inhibition at 0.5 µM was 4.1%.

As for `N#CCc1ccc(Nc2ncnc3ccc(-c4cccc5c4sc4ccccc45)cc23)cc1` [Compound 25, 6-(dibenzo(b,d)thiophene-4-yl)-4-(4-cyanomethyl)phenylamino-quinazoline], the pIC50 in assay [1] is 4.47; in [2], 4.74; in assay [3] it was 4.48; with A-375 (melanoma) cells, 4.47; in the assay with HL-60 (leukemia) cells, 4.51. The same compound came in with an inhibition at 0.5 µM against PI3K-α (0.5 μM, preliminary screening) below 0%.

Consider `CCOc1ccc(-c2ccc(-c3ccc4ncnc(Nc5ccc(CC#N)cc5)c4c3)cc2)cc1` [Compound 17, 6-(4-(4-ethoxyphenyl)phenyl)-4-(4-cyanomethyl)phenylamino-quinazoline], for which the pIC50 in assay [1] was 4.59; in assay [2] it was 4.77; in assay [3], 4.48; in the assay with A-375 (melanoma) cells, 4.52; in the assay with HL-60 (leukemia) cells, 4.80. Also, the inhibition at 0.5 µM against PI3K-α (0.5 μM, preliminary screening) is below 0%.

In the case of `N#CCc1ccc(Nc2ncnc3ccc(-c4ccccc4)cc23)cc1` [Compound 6, 6-phenyl-4-(4-cyanomethyl)phenylamino quinazoline], the pIC50 in assay [1] is 4.64; in assay [2] it was 4.57; in [3], 4.40; in the assay with A-375 (melanoma) cells, 4.62; with HL-60 (leukemia) cells, 4.49. Further, the inhibition at 0.5 µM against PI3K-α (0.5 μM, preliminary screening) came out at 16.4%.

(Values after patent US10202374B2, “6-aryl-4-phenylamino-quinazoline analogs as phosphoinositide-3-kinase inhibitors” (COUNCIL OF SCIENTIFIC & INDUSTRIAL RESEARCH, priority 2014, dated 2019).)
